Reference: patent US10449198B2, “Method for treating pain” (The University of Liverpool, priority 2016, dated 2019)

Experiments:
neuropathic rats [1] = assay: Neuropathic pain model (partial sciatic nerve ligation): cold hyperalgesia, 10° C. cold plate paw withdrawal latency; format: in vivo, rat
Experimental: Fasted, male, Wistar rats. n=6/group. Vehicle: 10% DMSO/10% Solutol HS15/80% saline. 10 ml/kg p.o. One-way ANOVA, comparison with time-matched vehicle group using Tukey's HSD test, *p<0.05, **p<0.01, ***p<0.001.
• 1) In rats a peripheral neuropathy was induced by partial ligation of the sciatic nerve in one hind limb. • 2) Two weeks (12-15 days) after induction of peripheral neuropathy stable mechanical (tactile) allodynia was induced in the hind paw of the affected limb. • 3) Five treatment groups of male SD rats (n=8) were used: vehicle control (drug formulation), 3 drug doses, and a positive control, lamotrigine (30 mg/kg). Animals were randomized between groups and the experiment was carried out using blinded conditions. The study was split with n=4/group in each experiment. • 4) Baseline behavioural measurements were obtained prior to surgery and at intervals post-surgery. Predose behavioural measurements were obtained by measuring paw withdrawal thresholds 12-15 days following nerve ligation. • 5) Compound efficacy was determined by measuring paw withdrawal thresholds at specified intervals following vehicle/compound treatment. Animals […]
(§1) Compound/vehicle were administered at specified doses. Following treatment, further readings were taken; 1, 3, 6 and 24 hour after p.o. administration.
Cold sensitivity was assessed using a commercially available cold-plate (Ugo Basile, Milan). The cold-plate was set according to pre-determined calibration data using a surface temperature probe to correlate set temperature to actual surface temperature over a wide temperature range (−5° C. to 26° C.). […] Paw withdrawal latencies were determined with the cold-plate set at 10° C. […] The end point was taken as the withdrawal of the paw and recorded as the withdrawal latency for the ipsilateral and the contralateral paw. […]
(§2) Raw data were analysed using parametric statistical tests, including one-way analysis of variance (ANOVA) followed by Tukey's post hoc test repeated measures of ANOVA. […]

neuropathic rats [2] = assay: Neuropathic pain model (partial sciatic nerve ligation): tactile allodynia / mechanical paw withdrawal thresholds; format: in vivo, rat
Experimental: Fasted, male, Wistar rats. n=6/group. Vehicle: 10% DMSO/10% Solutol HS15/80% saline. 10 ml/kg p.o. One-way ANOVA, comparison with time-matched vehicle group using Tukey's HSD test, *p<0.05, **p<0.01, ***p<0.001
Protocol for study of compounds in a model of neuropathic pain: reversal of tactile allodynia.
• 1) In rats a peripheral neuropathy was induced by partial ligation of the sciatic nerve in one hind limb. • 2) Two weeks (12-15 days) after induction of peripheral neuropathy stable mechanical (tactile) allodynia was induced in the hind paw of the affected limb. • 3) Five treatment groups of male SD rats (n=8) were used: vehicle control (drug formulation), 3 drug doses, and a positive control, lamotrigine (30 mg/kg). Animals were randomized between groups and the experiment was carried out using blinded conditions. The study was split with n=4/group in each experiment. • 4) Baseline behavioural measurements were obtained prior to surgery and at intervals post-surgery. Predose behavioural measurements were obtained by measuring paw withdrawal thresholds 12-15 days following nerve ligation. • 5) Compound efficacy was determined by measuring paw withdrawal thresholds at specified intervals following vehicle/compound treatment. Animals
All animal procedures were carried out in accordance with the UK Animals (Scientific Procedures) Act 1986 and associated guidelines. Animals were maintained in a controlled lighting environment and given food and water ad libitum. Male Sprague Dawley rats (120-140 g at time of surgery) were used.
Tests compounds as well as lamotrigine (30 mg/kg, volume: 10 ml/kg)) were prepared in the designated formulation (10% DMSO, Solutol HS 15/80% and 0.9% saline for p.o. administration) and administered via the chosen route.
Allodynia was examined in the model of neuropathic pain induced by partial ligation of the sciatic nerve as described by Seltzer et al (1990). […]
Tactile allodynia was assessed by measuring withdrawal thresholds to calibrated von Frey hairs. […] The lowest amount of force required to elicit a response was recorded as the paw withdrawal threshold (in grams).
Allodynia was measured on both the ipsilateral (ligated) and contralateral (non-ligated) paw prior to (pre-dose) and at a set time point following compound or vehicle administration (post-dose). […]
as §1, §2

α1 glycine = target: T1, α1 glycine (Homo sapiens, UniProt P23415); assay: Glycine receptor activity, two-electrode voltage-clamp in Xenopus laevis oocytes; format: cell-based; settings: TEVC, holding potential −70 mV
T1 construct: expressed in transfected cells; host or cells: Xenopus laevis oocytes (cRNA injection)
T1 sequence (P23415 29-457): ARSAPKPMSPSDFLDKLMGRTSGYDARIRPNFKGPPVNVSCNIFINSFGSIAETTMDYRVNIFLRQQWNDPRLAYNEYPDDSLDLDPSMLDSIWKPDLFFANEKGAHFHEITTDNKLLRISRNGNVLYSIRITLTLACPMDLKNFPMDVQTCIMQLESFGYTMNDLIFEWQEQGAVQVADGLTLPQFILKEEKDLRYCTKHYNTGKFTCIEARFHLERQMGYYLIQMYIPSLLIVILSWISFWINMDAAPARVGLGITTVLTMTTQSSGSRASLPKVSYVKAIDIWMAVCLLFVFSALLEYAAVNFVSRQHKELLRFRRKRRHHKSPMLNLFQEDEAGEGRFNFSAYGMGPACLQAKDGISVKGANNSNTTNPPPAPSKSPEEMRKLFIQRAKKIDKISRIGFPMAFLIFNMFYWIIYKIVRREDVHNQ
Experimental: Oocytes were surgically removed from adult female Xenopus laevis clawfrogs anaesthetized by immersion in 0.3% tricaine in water (w/v). All protocols were approved by the local animal care and use committee (II25.3-19c20/15; RP Darmstadt, Germany). Stage V and VI Oocytes were dissected and stored in sterile-filtered ND96 medium (composition in mM: 96 NaCl, 2 KCl, 1 CaCl, 1 MgCl, 5 HEPES, pH 7.4) containing gentamycin (50 μg/mL). The oocytes were isolated and enzymatically and maintained as described previously (Grudzinska et al., 2005). Oocytes were injected with 5 ng of cRNA using a Drummond microinjector (Drummond Scientific, Broomall, USA) and incubated in ND96 for 24 h at 18° C. before electrophysiological recording. Two-electrode voltage-clamp (TEVC) with microelectrodes containing 3 M KCl was performed in bath solution at a holding potential of −70 mV as described previously (Laube et al., 2000). […]
Currents were measured with Clampfit 9.2 software (Molecular Devices), Results were analyzed using the KaleidaGraph program (Synergy Software, Reading, Pa.) and GraphPad Prism version 5.0 (GraphPad Software Inc., San Diego, Calif.). […] For propofol and 4-chloropropofol modulation, responses to EC20 glycine after application were analyzed as described previously (Lynagh and Laube, 2014); mean±standard error of the mean (SEM) are reported. […]

[3] = contralateral (non-ligated) paw

Structure (SMILES): CC(C)(C)c1cc(C(=O)N2CCOCC2)cc(C(C)(C)C)c1O [Compound 82, (3,5-Di-tert-butyl-4-hydroxyphenyl)(morpholino) methanone]
- Peak reversal of cold hyperalgesia (neuropathic rats [1]; 30 mg/kg p.o., at 1 h, 10° C. cold plate, neuropathic rats): 74%
- Contralateral paw withdrawal latencies to cold (neuropathic rats [1]; [3]): increased
- Reversal of cold (10° C. cold plate) parameter (neuropathic rats [1]; p.o., neuropathic rats): marked and long-lasting reversal
- melting point: 174 to 176 °C
- Peak reversal of tactile allodynia (neuropathic rats [2]; 30 mg/kg p.o., at 1 h, ipsilateral paw, neuropathic rats): 72%
- Efficacy across doses (cold and mechanical parameters) (neuropathic rats [2]; all three doses, p.o.): good and dose-related efficacy
- Contralateral paw withdrawal thresholds to mechanical pressure (neuropathic rats [2]; [3]): significant increase
- Reversal of mechanical (paw pressure) parameter (neuropathic rats [2]; p.o., neuropathic rats): marked and long-lasting reversal
- EC50 (α1 glycine): 0.46 nM
